From patent US11208433B2, “Peptide for inhibiting skin inflammation and composition for preventing or treating skin inflammation containing the same” (AVIXGEN Inc., priority 2017, dated 2021) come the findings set out here.

The subject of one assay is ZO-1 (tight junction). Kind of assay: Recovery of ZO-1 broken by VEGF in HUVEC (confocal immunofluorescence). The conditions noted are these: peptide pretreatment 30 minutes, VEGF 20 ng/ml 1 hour, FIGS. 18 and 19. It is filed as cell-based, Human. As to the method:
(§1) HUVECs were starved with M199 media supplemented with 1% FBS for 4 hours, inoculated on a 24-well plate containing glass at the number of 1×10^5 cells, and cultured for 24 hours to attach the cells to the glass. HUVECs were pretreated with the acetylated tetrapeptide and the non-acetylated tetrapeptide (—Ac) for 30 minutes and treated with VEGF at a concentration of 20 ng/ml for 1 hour. Thereafter, the cells were washed three times with PBS, fixed in 3.7% formaldehyde for 20 minutes, and treated with PBS containing 0.2% Triton X-100 to increase […] permeability. After blocking with 3% BSA for 1 hour, they were reacted with VE-cadherin (adherens junction) and ZO-1 (tight junction) antibodies at room temperature for 2 hours and washed three times with PBS. They were treated with Cy3 secondary antibodies, reacted at room temperature for 1 hour, washed twice with PBS, and stained with DAPI for 10 minutes. The huvec-attached glass was removed and mounted on a sliding glass.

Assay [1] deals with VE-cadherin (adherens junction). Nature of the assay: Recovery of VE-cadherin broken by VEGF in HUVEC (confocal immunofluorescence). The format is cell-based, Human. The conditions noted are these: peptide pretreatment 30 minutes, VEGF 20 ng/ml 1 hour, FIGS. 16 and 17. Here is the method:
as §1

Another assay deals with histamine. Nature of the assay: ELISA analysis of serum histamine in atopic dermatitis animal model. The conditions noted are these: day of autopsy (Day 14). The format is in vivo, NC/Nga mouse. As to the method: (§2) After the ear auricle of the NC/Nga mouse was shaved with a razor, the epilating agent was applied in an appropriate amount for the complete depilation. After the epilating agent was wiped off, Then, 100 mg of the AD-inducing reagent shown in Table 2 as below was uniformly applied to the ear auricle using a micropipette tip, thereby inducing atopic dermatitis for the first time.
(§3) After shaving with a razor for necessary, 150 μL of a 4% SDS aqueous solution was uniformly applied to the ear auricle using a micropipette, dried with a cold air using a dryer, and air-dried for about 2 to 3 hours. Then, 100 mg of the same AD-inducing reagent was uniformly applied to the ear auricle using a micropipette tip, thereby inducing atopic dermatitis after 2 times. All treatments were carried out twice a week to be 6 times for a total of 3 weeks, thereby producing atopic dermatitis animal model.
(§4) The mice of groups 2 to 5 were obtained by the atopic dermatitis animal model prepared in Experimental Method 3 as described above.
(§5) The experimental substance and the control substance were uniformly applied to the ear auricle using a micropipette tip. From the day of the experimental substance administration (Day 0) to the day of the autopsy (Day 14), they were administered once a day for 2 weeks.
On the day of the autopsy, blood samples were collected from the abdominal vein using a syringe. The serum isolated from the blood was analyzed for IgE and histamine using an ELISA kit.

Assay [2] has as its system atopic mouse skin tissues. Kind of assay: Immunohistochemical staining of atopic mouse skin tissue (angiogenic marker, inflammatory cells, keratin). It is filed as in vivo, NC/Nga mouse. Here is the method:
as §2, §3, §4, §5
Atopy mouse skin tissues were immersed in Xylene three times for 5 minutes, 100% ethanol for 2 minutes, 95% ethanol for 2 minutes, 90% ethanol for 2 minutes, 70% ethanol for 2 minutes and D.W. for 2 minutes to remove paraffin and to perform hydration. After washing with PBS, they were treated with 0.2% Triton X-100 to increase cell permeability. After re-washing with PBS, they were reacted with blocking solution, 3% bovine serum albumin, for 1 hour. For inflammatory cells and keratin staining, they were reacted with F4/80 (sc-377009, Santa Cruz) and cytokeratin (NB600-579, NOVUSBIO) antibodies, respectively, at room temperature for 2 hours. After washing with PBS, they were treated with Texas Red (ab6787, Abcam) secondary antibody and reacted at room temperature for 60 minutes. The mounting solution was dropped on the tissue of the slide. Then, the tissue was covered with a cover slide, and the sample was observed under a fluorescence microscope. For analysis of the degree of angiogenesis, the atopic skin tissue was reacted with FITC-conjugated isolectin B4 (L2895, Sigma), a blood vessel marker at room temperature for 2 hours. The mounting solution was dropped on the tissue of the slide. Then, the tissue was covered with a cover slide, and the sample was observed under a fluorescence microscope
The mouse skin tissues stained with the respective markers were photographed using a fluorescence microscope (DMil, Leica, Germany), and fluorescence intensities were quantitatively analyzed using an ImageJ program (NIH, Bethesda, Md., USA).

A further assay deals with IgE. Nature of the assay: ELISA analysis of serum IgE in atopic dermatitis animal model. The conditions noted are these: day of autopsy (Day 14).
Assay [3] concerns atopic dermatitis animal model. Nature of the assay: Ear thickness measurement in atopic dermatitis animal model. The format is in vivo, NC/Nga mouse. The conditions noted are these: FIG. 2; for ear thickness compared with induced control group (group 2): 7th and 14th day after administration, tetrapeptide 0.622, ACP-tetrapeptide 4.987, prednisolone 50 μg/ear once a day, p<0.001 or p<0.01. Here is the method: (§6) After the ear auricle of the NC/Nga mouse was shaved with a razor, the epilating agent was applied in an appropriate amount for the complete depilation. After the epilating agent was wiped off, Then, 100 mg of the AD-inducing reagent shown in Table 2 as below was uniformly applied to the ear auricle using a micropipette tip, thereby inducing atopic dermatitis for the first time. After shaving with a razor for necessary, 150 μL of a 4% SDS aqueous solution was uniformly applied to the ear auricle using a micropipette, dried with a cold air using a dryer, and air-dried for about 2 to 3 hours. Then, 100 mg of the same AD-inducing reagent was uniformly applied to the ear auricle using a micropipette tip, thereby inducing atopic dermatitis after 2 times. All treatments were carried out twice a week to be 6 times for a total of 3 weeks, thereby producing atopic dermatitis animal model. The mice of groups 2 to 5 were obtained by the atopic dermatitis animal model prepared in Experimental Method 3 as described above. The experimental substance and the control substance were uniformly applied to the ear auricle using a micropipette tip. From the day of the experimental substance administration (Day 0) to the day of the autopsy (Day 14), they were administered once a day for 2 weeks. Ear thickness was measured for each individual by calipers, and the ear area was photographed. Ear thickness measurement and photographing were performed once a week on the day of starting the experimental substance administration and thereafter.

Assay [4] relates to atopic dermatitis animal model. Nature of the assay: Histopathological examination of ear epidermis and dermis (H&E scoring). The format is in vivo, NC/Nga mouse. The conditions noted are these: infiltration by inflammatory cells, p<0.05, FIGS. 8 and 9; for epidermis score level compared with group 2: hypertrophy, hyperkeratosis. As to the method:
After the ear auricle of the NC/Nga mouse was shaved with a razor, the epilating agent was applied in an appropriate amount for the complete depilation. After the epilating agent was wiped off, Then, 100 mg of the AD-inducing reagent shown in Table 2 as below was uniformly applied to the ear auricle using a micropipette tip, thereby inducing atopic dermatitis for the first time. After shaving with a razor for necessary, 150 μL of a 4% SDS aqueous solution was uniformly applied to the ear auricle using a micropipette, dried with a cold air using a dryer, and air-dried for about 2 to 3 hours. Then, 100 mg of the same AD-inducing reagent was uniformly applied to the ear auricle using a micropipette tip, thereby inducing atopic dermatitis after 2 times. All treatments were carried out twice a week to be 6 times for a total of 3 weeks, thereby producing atopic dermatitis animal model. The mice of groups 2 to 5 were obtained by the atopic dermatitis animal model prepared in Experimental Method 3 as described above. The experimental substance and the control substance were uniformly applied to the ear auricle using a micropipette tip. From the day of the experimental substance administration (Day 0) to the day of the autopsy (Day 14), they were administered once a day for 2 weeks. On the day of the autopsy, ears were removed for the histopathological examination and fixed in 10% neutral buffered formalin solution. The fixed tissues were subject to the general tissue treatment such as reprofiling, dehydration, paraffin embedding, and dissection, thereby preparing specimens for histopathological examination. Then, hematoxylin and eosin (H & E) and TUNEL assays were performed on histopathologic specimens, and the light microscopy (Olympus BX53, Japan) was used to observe histopathologic changes. In the histopathologic evaluation using hematoxylin and eosin staining slides, in order to compare the degree of the lesion with the induced control group, the most severe lesion was selected, and then the hypertrophy, hyperkeratosis and infiltration by inflammatory cells were evaluated in the epidermis. In the dermis, the infiltration by inflammatory cells was evaluated. Scoring criteria are the same as 0 (no symptoms), 1 (mild), 2 (moderate), and 3 (severe) (Taniguchi Y et al 2003).

Assay [5] has as its system atopic dermatitis animal model. Kind of assay: Visual pathological evaluation (skin clinical index) in atopic dermatitis animal model. The format is in vivo, NC/Nga mouse. The conditions noted are these: 14th day after administration; p<0.05; FIG. 6. Here is the method: as §6, with “[…] For each individual, 0 (none), 1 (mild), 2 (moderate) and 3 (severe)” for “From the day of the experimental substance administration (Day 0) to the day of the autopsy (Day 14), they”, “recorded” for “administered once a day”, “erythema/hemorrhage, edema, excoriation/erosion” for “2 weeks. Ear thickness was measured for each individual by calipers,”, “scaling/dryness. […]” for “the ear area was photographed. Ear thickness measurement and photographing were performed once a week on the day of starting the experimental substance administration and thereafter.”

Turning to “Tetrapeptide (—Ac): non-acetylated tetrapeptides (RLYE)”, the “damage level of ZO-1 caused by VEGF” value with ZO-1 (tight junction) is “recovered to a level similar to that of the control group without VEGF treatment”. Moreover, the “damage level of VE-cad caused by VEGF” value in assay [1] is recorded as “recovered to a level similar to that of the control group without VEGF treatment”.

As for RLYE [Tetrapeptide], the “damage level of ZO-1 caused by VEGF” value with ZO-1 (tight junction) is listed as “recovered to a level similar to that of the control group without VEGF treatment”. Also, the “histamine level compared with prednisolone treated group” value in the assay on histamine (FIG. 7) is reported as “lower than that of the prednisolone treated group”. In the assay on histamine (p<0.001 or p<0.01, FIG. 7), the “histamine level compared with group 2 (induced control)” value is reported as “significantly lower”. Moreover, the “damage level of VE-cad caused by VEGF” value in assay [1] is reported as “recovered to a level similar to that of the control group without VEGF treatment”. In addition, the “angiogenesis (Isolectin B4 staining)” value in assay [2] (atopic mouse skin tissue, also similar to prednisolone treated group, FIG. 10) is listed as “lower than that of the inducted control group”. In assay [2] (atopic mouse skin tissue, also similar to prednisolone treated group, FIG. 11), the “inflammatory cell inflow (F4/80 staining)” value is given as “lower than that of the inducted control group”. Moreover, the “keratinization and fibrosis (cytokeratin staining)” value in assay [2] (atopic mouse skin tissue, also similar to prednisolone treated group, FIG. 12) is “lower than that of the inducted control group”. For the same compound, the “anti-atopic effect compared with prednisolone” value in assay [2] (treatment amount having a molar ratio lower than 1000 times that of prednisolone, FIG. 13) is “superiority to prednisolone”. In addition, the “IgE level compared with prednisolone treated group” value in the assay with IgE (FIG. 7) is reported as “lower than that of the prednisolone treated group”. In the assay with IgE (p<0.001 or p<0.01, FIG. 7), the “IgE level compared with group 2 (induced control)” value is “significantly lower” and the “IgE level compared with normal control group” value was “significantly higher”. The “ear thickness compared with induced control group (group 2)” value in assay [3] is “significantly thinner”. For the same compound, the “ear thickness compared with normal control group (group 1)” value in assay [3] (14th day after administration, p<0.001) was “significantly thicker”. For the same compound, in assay [4], the “epidermis score level compared with group 2” value was “significantly lower” and the “dermis score level compared with group 2” value is recorded as “significantly lower”.

With `C[C@]12C=CC(=O)C=C1CC[C@@H]1[C@@H]2[C@@H](O)C[C@@]2(C)[C@H]1CC[C@]2(O)C(=O)CO` [Prednisolone, prednisolone, reference compound], in assay [5], the “scaling/dryness level compared with group 2” value was “significantly lower”. Further, the “IgE level compared with group 2 (induced control)” value in the assay on IgE (p<0.001 or p<0.01, FIG. 7) is “significantly lower”. Besides, the “ear thickness compared with induced control group (group 2)” value in assay [3] is recorded as “significantly thinner”. Besides, in assay [4], the “epidermis score level compared with group 2” value is listed as “significantly lower” and the “dermis score level compared with group 2” value is “significantly lower”.
